In patent US12397059B2, “Compounds and methods for the treatment and prevention of fibrotic disease states and cancer” (Purdue Research Foundation, priority 2019, dated 2025):

Test system: BM-induced experimental pulmonary fibrosis in mice
Method: Studies were also performed to determine if macrophages in pulmonary fibrotic lungs might be specifically targeted with folate-linked drugs in vivo. […] (The BM model is widely regarded to be helpful in terms of enabling mechanistic investigations relevant to fibrogenesis in an in vivo context.)
More specifically, eight-week-old C57BL6 male mice from Charles River (average weight 22 g to 25 g) were housed under pathogen-free conditions at room temperature (22° C.) under a 12 hours light-dark cycle. Mice were placed on a folate deficient chow (Envigo Teklad Global Rat Food Pellets) for 1 week prior to the BM or PBS instillation. Fresh water and folate-deficient diet were freely available. All animal procedures were approved by the Purdue Animal Care and Use Committee in accordance with National Institute of Health guidelines.
Thereafter, the mice were anesthetized with ketamine/xylazine and the necks of the mice were shaved using hair remover lotion and then sterilized with 70% alcohol. A small incision was made on the neck to visualize the trachea. Mice were positioned at a 75-degree angle and injected intratracheally with 100 μL sterile PBS or BM (Cayman Chemicals, Ann Arbor, MI; #13877) dissolved in PBS (0.75 mg/kg) using a 1 cc syringe with 26 G needle. Body weights were monitored every other day throughout the experiment.
Lobes of the right lung collected above were weighed, placed in a pressure-tight vial (Supelco Inc., Bellefonte, PA; #27003), and hydrolyzed with 6N HCl (10 ml/g, v/w) in a sand bath at 120° C. for 3.5 hours. The hydrolyzed solution was cooled at 4° C. for 15 min and transferred to a 1.5 ml Eppendorf tube prior to centrifugation at 12,000 rcf for 15 min at 4° C. Supernatant was carefully collected, aliquoted and used for hydroxyproline (HYP) analysis.
For the subsequent HYP analysis, 10 μl of sample was transferred into a 96-well plate and neutralized with 10 μl of 5.3 M sodium hydroxide solution. Isopropanol (40 μl) was then added to each well followed by 20 μl of oxidation buffer and the mixture was incubated on a shaker at room temperature for 5 min. Analytical reagent (260 μl) was added, and the plate was incubated on a shaker at room temperature for 30 seconds and incubated immediately at 60° C. for 25 min. The absorbance was measured at 560 nm (A560) within 15 min. All reagents were prepared according to a previously reported protocol.
For histological analysis of the lung sections, fixed lungs (see above) were embedded in paraffin, sectioned and stained with hematoxylin-eosin (H&E), Masson's trichrome or F3 (anti-mouse FRβ antibody). Tissue sections were examined in a blinded manner by a licensed pathologist. More than 90×10^6 cells were quantified per section using Aperio-Image Scope (Leica Biosystems, Wetzlar, DE).
For this, BM-treated mice were intravenously injected every other day beginning on day 10 with either vehicle (3% DMSO in PBS) or Compound 1B (see FIG. 8A). […] In BM-induced experimental pulmonary fibrosis in mice, inflammation is known to persist for about 9-10 days after BM installation. Because, inflammation to fibrosis switch happens in this model approximately day 9 to day 14, and profibrotic markers start appearing at about day 10, dosing began on day 10 (FIG. 8A).
Two doses were given every other day till day 21. The individual doses on a day are separated by 6 hours to prevent any “tolerance” to TLR agonists. Mice were then sacrificed on day 21 and subjected immediately to bronchoalveolar lavage followed by resection of the lungs for immunohistochemistry and quantitation of collagen and hydroxyproline.

Structure (SMILES): CCCCc1nc2c(N)nc3ccccc3c2n1CC(C)(C)OC(=O)OCCSSCC(NC(=O)CCC(NC(=O)c1ccc(NCc2cnc3nc(N)[nH]c(=O)c3n2)cc1)C(=O)O)C(=O)O (centres unmarked) [Compound 1B]
- lung histology with increasing dose (1, 3, 10 nmol): lung histology improved
- order of efficacy on lung hydroxyproline content (day 21): 10 nmol/mouse>3 nmol/mouse>1 nmol/mouse>0 nmol/mouse
- anti-fibrotic response, lung sections stained DAPI, anti-F4/80, anti-CD206 (differences between treated groups): robust anti-fibrotic response
- collagen stain, Masson's trichrome (tail vein injection): strongly suppressed
- lung histology, H&E staining (treated beginning on day 10): lung architecture that resembles that of healthy mice
